Assay results reported in patent publication US20260263617A1, “DARATUMUMAB DRUG CONJUGATES AND PREPARATION THEREOF” (ZYDUS LIFESCIENCES LIMITED, priority 2023, published 2026).
Read-outs that look alike come from different tables or passages of the source.

How the values were obtained:
[1] = system: Daudi (ATCC CCL-213, B Lymphoblast) cells; assay: In-vitro cytotoxicity assay using Daudi cells (alamar blue); assay type: cell-based
Protocol: Daudi (ATCC CCL-213, B Lymphoblast) cells were seeded on a 96 well black clear bottom plate (Costar 3603). The cell line was chosen as it is known to express the CD38 receptor. The cells were treated with different concentrations of daratumumab-MMAE conjugation and Darzalex, incubated in CO2 incubator for 2 hours. After incubation the excess or unbound Daratumumab-MMAE was removed, fresh media was added and incubated for 4 days in 5% CO2 at 37° C. At the end of incubation, alamar blue dye (invitrogen, DAL-1100) was added to the cells and incubated for 5 hours in CO2 incubator.

[2] = system: Daudi Burkitt lymphoma xenograft; assay: Efficacy in Burkitt lymphoma xenograft disease model in SCID mice; assay type: in vivo; details: 5 mg/kg, I.V. route, single administration; dosed at mean tumor volume approximately 20-25 mm3; FIG. 4
Protocol: In present study, the therapeutic potential of novel Daratumumab-ADC has been evaluated in comparison to Daratumumab antibody only. Specifically to induce Burkitt lymphoma xenograft, Immunodeficient SCID mice were injected with Daudi cells (1 million cells/animal/200 μL volume, In 1:1 ratio of cell suspension & matrigel) in right flank region of animals. […] Here, in this study, Daratumumab-ADC & Daratumumab were compared head to head at a dose level of 5 mg/kg (I.V. route, Single administration).

## daratumumab-MMAE conjugate: daratumumab as an antibody, mc-vc-PABC as a linker and MMAE as a toxin or drug or payload; average DAR about 4
[1]; Daudi cells expressing CD38, 2 hours treatment, unbound removed, 4 days incubation, no effector cells
  in vitro activity (cytotoxicity, viable cells by alamar blue fluorescence): shows good in vitro activity without the requirement of effector cell mediated killing
[1]; Daudi cells, FIG. 3
  relative in vitro activity compared with Darzalex: better than Darzalex
[2]
  effect on tumor progression / tumor burden: able to regress the tumor burden

## Daratumumab: immunoglobulin G1 kappa (IgG1κ) human monoclonal antibody against CD38 antigen [reference compound]
[1]
  in vitro activity (cytotoxicity, viable cells by alamar blue fluorescence): does not show activity without effector functions
[2]
  effect on tumor progression / tumor burden: able to delay the tumor progression in comparison to placebo control group but not able to regress the tumor burden
